± gives the expanded uncertainty stated by the source.
Tests used:
[1] = refractive index (Na D-line) (dimensionless); details: 100 kPa, Liquid, Standard Abbe refractometry
[2] = 100 kPa, Liquid; for viscosity: Capillary tube (Ostwald / Ubbelohde) method; for speed of sound: Frequency=3 MHz, Sing-around technique in a fixed-path interferometer; for mass density: Vibrating tube method
[3] = refractive index (Na D-line) (dimensionless); xn = mol fraction of the nth substance listed; details: 100 kPa, Liquid, Standard Abbe refractometry, x2 = 0
[4] = xn = mol fraction of the nth substance listed; details: 100 kPa, Liquid, x2 = 0; for viscosity: Capillary tube (Ostwald / Ubbelohde) method; for speed of sound: Frequency=3 MHz, Sing-around technique in a fixed-path interferometer; for mass density: Vibrating tube method

SMILES	refractive index ([1]; 283.15 K)	refractive index ([1]; 298.15 K)	refractive index ([1]; 313.15 K)	viscosity ([2]; 283.15 K) [mPa·s]	speed of sound ([2]; 283.15 K) [m/s]	mass density ([2]; 283.15 K) [kg/m3]	viscosity ([2]; 298.15 K) [mPa·s]	speed of sound ([2]; 298.15 K) [m/s]	mass density ([2]; 298.15 K) [kg/m3]	viscosity ([2]; 313.15 K) [mPa·s]	speed of sound ([2]; 313.15 K) [m/s]	mass density ([2]; 313.15 K) [kg/m3]	refractive index ([3]; 283.15 K)	refractive index ([3]; 298.15 K)	refractive index ([3]; 313.15 K)	viscosity ([4]; 283.15 K) [mPa·s]	speed of sound ([4]; 283.15 K) [m/s]	mass density ([4]; 283.15 K) [kg/m3]	viscosity ([4]; 298.15 K) [mPa·s]	speed of sound ([4]; 298.15 K) [m/s]	other results
CCC(C)O (stereo not drawn) [butan-2-ol]	1.40126 ± 0.00033	1.39515 ± 0.00033	1.38878 ± 0.00033	5.652 ± 0.12	1266 ± 1.3	814.99 ± 0.24	3.07 ± 0.064	1212.2 ± 1.3	802.71 ± 0.24	1.796 ± 0.037	1157.6 ± 1.2	789.86 ± 0.24	–	–	–	–	–	–	–	–	–
CCC(C)O (stereo not drawn) [butan-2-ol] + CC(=O)N(C)C	–	–	–	–	–	–	–	–	–	–	–	–	1.40126 ± 0.00033	1.39515 ± 0.00033	1.38878 ± 0.00033	5.652 ± 0.12	1266 ± 1.3	814.99 ± 0.24	3.07 ± 0.064	1212.2 ± 1.3	mass density ([4]; 298.15 K): 802.71 ± 0.24 kg/m3; viscosity ([4]; 313.15 K): 1.796 ± 0.037 mPa·s; speed of sound ([4]; 313.15 K): 1157.6 ± 1.2 m/s; mass density ([4]; 313.15 K): 789.86 ± 0.24 kg/m3
CC(C)O [propan-2-ol]	1.38149 ± 0.00033	1.37505 ± 0.00033	1.36829 ± 0.00033	3.306 ± 0.069	1191.9 ± 1.2	793.41 ± 0.24	2.051 ± 0.043	1139.2 ± 1.2	781.07 ± 0.24	1.334 ± 0.028	1086.6 ± 1.2	768 ± 0.24	–	–	–	–	–	–	–	–	–
CC(C)O [propan-2-ol] + CC(=O)N(C)C	–	–	–	–	–	–	–	–	–	–	–	–	1.38149 ± 0.00033	1.37505 ± 0.00033	1.36829 ± 0.00033	3.306 ± 0.069	1191.9 ± 1.2	793.41 ± 0.24	2.051 ± 0.043	1139.2 ± 1.2	mass density ([4]; 298.15 K): 781.07 ± 0.24 kg/m3; viscosity ([4]; 313.15 K): 1.334 ± 0.028 mPa·s; speed of sound ([4]; 313.15 K): 1086.6 ± 1.2 m/s; mass density ([4]; 313.15 K): 768 ± 0.24 kg/m3

Source: the NIST ThermoML archive (doi:10.1016/j.tca.2017.06.023)
